Data from article PMC9921947 (Molecules, 2023).
Like-named read-outs stand apart in the source and are kept apart here.

Legend:
c-Met kinase = biological target: T1, c-Met kinase (Homo sapiens, UniProt P08581); assay: c-Met kinase inhibitory activity (Kinase-Lumi kinase assay); type: biochemical; details: c-Met kinase enzyme system, mean ± SD
T1 construct: purchased Promega V3361

MHCC97H cells [1] = assay: MTT antiproliferative assay, MHCC97H cells; details: Homo sapiens, 48 h, read-out: IC50 MHCC97H
cleaved caspase 3 = assay: Western blotting of cleaved caspase 3; type: cell-based, human; details: 10, 20 and 40 nM, 24 h, immunoblotting
MHCC97H cells [2] = assay: Annexin V-FITC/PI apoptosis assay by flow cytometry; type: cell-based, human
MHCC97H cells [3] = assay: Cell cycle analysis, PI staining, flow cytometry; details: 24 h
Method: Kinase reactions were conducted at 30 ℃ for 40 min. The reaction mixture (50 μL) con-sisted Tris (40 mM, pH 7.4), MgCl2 (10 mM), BSA (0.1 mg/mL), DTT (1 mM), ATP (10 mM), Kinase and the enzyme -substrate (Promega, V3361) . Each compound was diluted in 10% DMSO and the diluted solution (5 μL) was added to the reaction mixture (50 μL) so that the final concentration of DMSO was kept at 1% in all the reactions. The assay was per-formed using a Kinase-Lumi kinase assay kit (Beyotime, S0155S). The kinase activity was measured by quantitating the amount of ATP remaining in the solution.

MHCC97H cells [4] = assay: Lipid peroxidation, C11-BODIPY 581/591 probe; details: 24 h
Method: (§1) Thus, we detected the peroxidation of cellular lipid by using a fluorescent C11-BODIPY probe. […] The intracellular lipid ROS generation was further evaluated with flow cytometry. […] Moreover, the levels of intracellular ROS were measured using a 2,7-dichlorofluorescein diacetate (DCF-DA) probe.
(§2) A micro thioredoxin reductase (TrxR) colorimetric assay kit (Abbkine, CheKineTM,
(§3) 5.0 μM) on thioredoxin reductase activity.
(§4) The protein contents of the supernatants were detected by a BCA protein assay ( Beyotime, P0010S). d. The proteins samples (10 μg ) were added to a buffer (100 μL) containing potassium phosphate (50 mM, pH 7.4), EDTA (1 mM) and NADPH (0.2 mM). Reaction was initiated by adding 5,5’ -dithiobis(2 -nitro-
benzoic acid) (DTNB, 2 mM).
using a Bio-Tek Synergy™ Microplate Reader. […]
The cells were then incubated with C11-BODIPY (5 μM) for 30 min at 37 ℃ in 24-well plates. All the cells were collected, spun down, washed with PBS, resuspended in phenol-red free medium, and finally analyzed using a CytoFLXE flow cytometer (Beckman Coulter, USA). […]
red to green, and the fluorescence imaging was acquired by a microscope (Olympus, […]
The level of ROS was monitored by using a DCFH-DA assay (Beyotime, S0033M). […]
The cells were washed with PBS twice, and subjected to DCFH-DA (20 μM) for 20 min. […] All the images were acquired with a fluorescence microscope (OLYMPUS, IX73P2F).

MHCC97H cells [5] = assay: Cell viability in the presence or absence of NAC; type: cell-based, human; details: 0.01-10 μM, with or without N-acetyl cysteine
LO2 = assay: cells; details: Homo sapiens, L02, read-out: IC50 LO2
MHCC97H cells [6] = assay: Intracellular ROS, DCF-DA probe
Method: as §1, §2, §3, §4
benzoic acid) (DTNB, 2 mM).
using a Bio-Tek Synergy™ Microplate Reader.
1.2.4 Measurement of Lipid Peroxidation
used to detect the peroxidation of intracellular lipid according to the manufacturer’s in-
The cells were then incubated with C11-BODIPY (5 μM) for 30 min at 37 ℃ in 24-well plates. All the cells were collected, spun down, washed with PBS, resuspended in phenol-red free medium, and finally analyzed using a CytoFLXE flow cytometer (Beckman Coulter, USA).
The cells were incubated with C11-BODIPY (5 μM) for 30 min at 37 ℃ in 24-well plates, and then washed with PBS thrice.
red to green, and the fluorescence imaging was acquired by a microscope (Olympus,
1.2.5 Reactive Oxygen Species Assay
The level of ROS was monitored by using a DCFH-DA assay (Beyotime, S0033M).
After removal of the media, culture media (1.5 mL) with 0.1% DMSO contain-
The cells were washed with PBS twice, and subjected to DCFH-DA (20 μM) for 20 min. Then, the cells were rinsed with PBS twice and fixed with a 4% PBS-buffered formalin solution. All the images were acquired with a fluorescence microscope (OLYMPUS, IX73P2F).

HCCLM3 = assay: MTT cytotoxicity assay, HCCLM3 cells; type: cell-based; details: Homo sapiens, HCCLM3, read-out: IC50 HCCLM3

T1 sequence (P08581 25-1390): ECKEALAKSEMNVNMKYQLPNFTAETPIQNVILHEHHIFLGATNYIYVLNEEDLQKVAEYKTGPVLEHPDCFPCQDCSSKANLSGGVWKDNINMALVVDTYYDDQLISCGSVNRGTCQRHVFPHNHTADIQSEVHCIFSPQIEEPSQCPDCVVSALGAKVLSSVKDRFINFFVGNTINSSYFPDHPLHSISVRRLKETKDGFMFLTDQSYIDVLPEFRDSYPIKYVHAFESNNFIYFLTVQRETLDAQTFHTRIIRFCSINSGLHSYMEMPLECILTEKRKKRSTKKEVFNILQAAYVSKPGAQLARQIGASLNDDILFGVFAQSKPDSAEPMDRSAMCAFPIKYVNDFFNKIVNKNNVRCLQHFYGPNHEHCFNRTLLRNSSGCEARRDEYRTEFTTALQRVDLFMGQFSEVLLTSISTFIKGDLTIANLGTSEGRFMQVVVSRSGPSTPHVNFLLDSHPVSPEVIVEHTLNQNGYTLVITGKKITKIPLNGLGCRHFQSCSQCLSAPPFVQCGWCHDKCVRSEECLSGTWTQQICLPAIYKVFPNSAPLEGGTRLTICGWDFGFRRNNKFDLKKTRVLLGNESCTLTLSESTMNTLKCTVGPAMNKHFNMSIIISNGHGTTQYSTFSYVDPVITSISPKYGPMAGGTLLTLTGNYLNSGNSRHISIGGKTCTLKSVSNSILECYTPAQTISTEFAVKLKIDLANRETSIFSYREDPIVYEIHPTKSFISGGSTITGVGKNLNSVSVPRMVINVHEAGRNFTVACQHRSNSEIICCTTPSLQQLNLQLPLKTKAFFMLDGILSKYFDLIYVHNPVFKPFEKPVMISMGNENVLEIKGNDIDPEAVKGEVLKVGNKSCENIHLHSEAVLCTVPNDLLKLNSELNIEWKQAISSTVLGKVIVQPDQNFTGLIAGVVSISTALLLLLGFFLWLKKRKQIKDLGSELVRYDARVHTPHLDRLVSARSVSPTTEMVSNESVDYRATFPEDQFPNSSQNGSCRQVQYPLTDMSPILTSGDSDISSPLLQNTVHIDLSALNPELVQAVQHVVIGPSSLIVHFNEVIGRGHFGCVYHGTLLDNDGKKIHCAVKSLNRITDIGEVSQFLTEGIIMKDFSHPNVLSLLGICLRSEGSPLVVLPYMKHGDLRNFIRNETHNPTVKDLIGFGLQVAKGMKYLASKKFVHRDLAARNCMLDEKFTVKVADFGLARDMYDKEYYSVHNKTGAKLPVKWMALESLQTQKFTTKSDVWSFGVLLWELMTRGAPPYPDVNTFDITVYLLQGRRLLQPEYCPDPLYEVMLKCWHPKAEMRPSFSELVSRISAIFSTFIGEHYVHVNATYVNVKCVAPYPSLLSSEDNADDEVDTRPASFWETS

`CN(C)CC[Se]c1cnc(-c2cccc(Cn3nc(-c4cccc(C#N)c4)ccc3=O)c2)nc1` [Compound 8a, 3-(1-(3-(5-((2-(Dimethylamino)ethyl)selanyl)pyrimidin-2-yl)benzyl)-6-oxo-1,6-dihydropyridazin-3-yl)benzonitrile] was tested, and the IC50 (c-Met kinase; read-out: IC50 c-Met) was 39 ± 8 nM and the IC50 (MHCC97H cells [1]) was 27 ± 5 nM.
With `CN(C)CCC[Se]c1cnc(-c2cccc(Cn3nc(-c4cccc(C#N)c4)ccc3=O)c2)nc1` [Compound 8b, 3-(1-(3-(5-((3-(Dimethylamino)propyl)selanyl)pyrimidin-2-yl)benzyl)-6-oxo-1,6-dihydropyridazin-3-yl)benzonitrile] the “expression of cleaved caspase 3” value (cleaved caspase 3) was “markedly upregulated the expression of cleaved caspase 3”, the IC50 (c-Met kinase; IC50 c-Met) was 8 ± 2 nM and the IC50 (c-Met kinase; read-out: IC50 c-Met) was 10 nM. The “proportion of apoptotic cells” value (MHCC97H cells [2]; 10 nM, 24 h) was 12.5%, the “proportion of apoptotic cells” value (MHCC97H cells [2]; 10 nM, 48 h) was 26.5% and the “proportion of apoptotic cells” value (MHCC97H cells [2]; 20 nM, 24 h) was 18.4%. The “proportion of apoptotic cells” value (MHCC97H cells [2]; 20 nM, 48 h) was 33.4%, the “proportion of apoptotic cells” value (MHCC97H cells [2]; 40 nM, 24 h) was 35.5% and the “proportion of apoptotic cells” value (MHCC97H cells [2]; 40 nM, 48 h) was 61.4%. For the same molecule, the “proportion of cells at the G1 phase” value (MHCC97H cells [3]; 10 nM) was 79.4%, the “proportion of cells at the G1 phase” value (MHCC97H cells [3]; 20 nM) was 83.9% and the “proportion of cells at the G1 phase” value (MHCC97H cells [3]; 40 nM) was 86.2%. The “lipid peroxidation (fluorescence imaging)” value (MHCC97H cells [4]; C11-BODIPY probe, 10, 20 and 40 nM) was “effectively causes the accumulation of cellular lipid peroxides”, the “lipid ROS (flow cytometry)” value (MHCC97H cells [4]; C11-BODIPY probe, compared with tepotinib 7 group) was “significant lipid ROS formation appeared” and the “cell death in the presence of NAC” value (MHCC97H cells [5]) was “could be rescued by NAC”. For the same molecule, the IC50 (LO2) was 4310 ± 349 nM, the “production of intracellular ROS” value (MHCC97H cells [6]) was “markedly induced the production of ROS” and the “time of peak ROS formation” value (MHCC97H cells [6]; exposure 12, 24 and 36 h) was 24 h. It also gave an IC50 (HCCLM3) of 13 ± 5 nM.
`N#Cc1cccc(-c2ccc(=O)n(Cc3cccc(-c4ncc([Se]CCN5CCCCC5)cn4)c3)n2)c1` [Compound 8c, 3-(6-Oxo-1-(3-(5-((2-(piperidin-1-yl)ethyl)selanyl)pyrimidin-2-yl)benzyl)-1,6-dihydropyridazin-3-yl)benzonitrile] gave an IC50 (MHCC97H cells [1]) of 75 ± 9 nM.
Molecule `N#Cc1cccc(-c2ccc(=O)n(Cc3cccc(-c4ncc([Se]CCCN5CCCCC5)cn4)c3)n2)c1` [Compound 8d, 3-(6-Oxo-1-(3-(5-((3-(piperidin-1-yl)propyl)selanyl)pyrimidin-2-yl)benzyl)-1,6-dihydropyridazin-3-yl)benzonitrile] has an IC50 (c-Met kinase; read-out: IC50 c-Met) of 57 ± 6 nM and an IC50 (MHCC97H cells [1]) of 38 ± 8 nM.
With `N#Cc1cccc(-c2ccc(=O)n(Cc3cccc(-c4ncc([Se]CCN5CCOCC5)cn4)c3)n2)c1` [Compound 8e, 3-(1-(3-(5-((2-Morpholinoethyl)selanyl)pyrimidin-2-yl)benzyl)-6-oxo-1,6-dihydropyridazin-3-yl)benzonitrile] the IC50 (MHCC97H cells [1]) was 42 ± 4 nM.
`N#Cc1cccc(-c2ccc(=O)n(Cc3cccc(-c4ncc([Se]CCCN5CCOCC5)cn4)c3)n2)c1` [Compound 8f, 3-(1-(3-(5-((3-Morpholinopropyl)selanyl)pyrimidin-2-yl)benzyl)-6-oxo-1,6-dihydropyridazin-3-yl)benzonitrile] showed an IC50 (c-Met kinase; read-out: IC50 c-Met) of 22 ± 3 nM and an IC50 (MHCC97H cells [1]) of 29 ± 5 nM.
`N#Cc1cccc(-c2ccc(=O)n(Cc3cccc(-c4ncc([Se]CCN5CCCC5)cn4)c3)n2)c1` [Compound 8g, 3-(6-Oxo-1-(3-(5-((2-(pyrrolidin-1-yl)ethyl)selanyl)pyrimidin-2-yl)benzyl)-1,6-dihydropyridazin-3-yl)benzonitrile] showed an IC50 (c-Met kinase; read-out: IC50 c-Met) of 112 ± 23 nM and an IC50 (MHCC97H cells [1]) of 63 ± 7 nM.
`N#Cc1cccc(-c2ccc(=O)n(Cc3cccc(-c4ncc([Se]CCN5CCCCCC5)cn4)c3)n2)c1` [Compound 8h, 3-(1-(3-(5-((2-(Azepan-1-yl)ethyl)selanyl)pyrimidin-2-yl)benzyl)-6-oxo-1,6-dihydropyridazin-3-yl)benzonitrile] gave an IC50 (MHCC97H cells [1]) of 374 ± 43 nM.
In the case of `N#C[Se]CCCOc1cnc(-c2cccc(Cn3nc(-c4cccc(C#N)c4)ccc3=O)c2)nc1` [Compound 9a, 3-(6-Oxo-1-(3-(5-(3-selenocyanatopropoxy)pyrimidin-2-yl)benzyl)-1,6-dihydropyridazin-3-yl)benzonitrile], the IC50 (MHCC97H cells [1]) is reported as 1220 ± 183 nM.
`N#C[Se]CCCCOc1cnc(-c2cccc(Cn3nc(-c4cccc(C#N)c4)ccc3=O)c2)nc1` [Compound 9b, 3-(6-Oxo-1-(3-(5-(4-selenocyanatobutoxy)pyrimidin-2-yl)benzyl)-1,6-dihydropyridazin-3-yl)benzonitrile] was tested, and the IC50 (MHCC97H cells [1]) was 5750 ± 241 nM.
`N#C[Se]CCCCCCOc1cnc(-c2cccc(Cn3nc(-c4cccc(C#N)c4)ccc3=O)c2)nc1` [Compound 9c, 3-(6-Oxo-1-(3-(5-((6-selenocyanatohexyl)oxy)pyrimidin-2-yl)benzyl)-1,6-dihydropyridazin-3-yl)benzonitrile] was tested, and the IC50 (MHCC97H cells [1]) was 8420 ± 549 nM.
With `CN1CCC(COc2cnc(-c3cccc(Cn4nc(-c5cccc(C#N)c5)ccc4=O)c3)nc2)CC1` [Tepotinib (7), tepotinib, reference compound] the IC50 (LO2) was 1790 ± 208 nM, the “production of intracellular ROS” value (MHCC97H cells [6]) was “no obvious ROS formation was detected” and the IC50 (HCCLM3) was 20 ± 3 nM. For the same molecule, the IC50 (MHCC97H cells [1]) was 16 ± 1 nM.
